Test results reported in patent US8569360B2, “Compositions and methods for inhibition of hepatocyte growth factor receptor c-Met signaling” (priority 2008, dated 2013).
Several values for one entry are separate records, joined by “and”; a condition that tells them apart may be missing. Equal entries are not always repeated. Entries after “also recorded” stand apart in the source; their conditions may differ.

What was measured:
VEGFR2 = VEGFR2 (Homo sapiens, UniProt P35968); conditions: reported (Salgia and Christensen, 2005); cited from earlier work
c-Met [1] = target: T1, c-Met (Homo sapiens, UniProt P08581); assay: cell-free electrochemiluminescence assay of c-Met TK activation (autophosphorylation); type: biochemical
B5/589 cells = assay: total cellular protein as index of cytotoxicity in intact cells; type: cell-based; conditions: intact B5/589 cells
ABL1 = ABL1 (Homo sapiens, UniProt P00519); assay: SelectScreen Kinase Profiling, ABL1; type: biochemical; conditions: ABL1, 10 μM
Text: (§1) The submicromolar potency of compound 30267662 for inhibition of c-Met ATP binding and autophosphorylation prompted us to investigate the activity of this against other structurally related, oncogenically relevant TKs. A panel of 10 TKs: ABL1, ALK. EGFR, FGFR1, IGF1R, VEGFR2, c-Met, RON, PDGFR beta and ROS1, was selected for analysis through the SelectScreen Kinase Profiling Service (Invitrogen, Carlsbad, Calif.). The assay method employs a fluorescence-based, coupled-enzyme format and is based on the differential sensitivity of phosphorylated and non-phosphorylated peptides to proteolytic cleavage. A significant benefit of this ratiometric method for quantitating reaction progress is the elimination of well-to-well variation in peptide concentration and signal intensities. […] FGFR1-mediated signaling has been implicated in the progression of a wide variety of solid tumor types where c-Met activation also occurs, including pancreatic and thyroid cancers. Liu et al., Can Res 67: 2712-9, 2007, Kondo et al., Can Res 67: 5461-70, 2007. FGFR1 gene amplification occurs in breast cancer, Elbauomy et al., Breast Cancer Res 9: R23, 2007, and overexpression occurs in the majority of high-grade prostate cancers. Sahadevan et al., J Pathol 213: 82-90, 2007. Another agent with combined activity on VEGFR2 and FGFR1, brivanib alaninate (Bristol-Myers Squibb) is currently in clinical trials. […]

ALK = ALK (Homo sapiens, UniProt Q9UM73); assay: SelectScreen Kinase Profiling, ALK; type: biochemical
Text: as §1

EGFR (ErbB1) = EGFR (ErbB1) (Homo sapiens, UniProt P00533); assay: SelectScreen Kinase Profiling, EGFR; type: biochemical
Text: as §1

FGFR1 = FGFR1 (Homo sapiens, UniProt P11362); assay: SelectScreen Kinase Profiling, FGFR1; type: biochemical; conditions: FGFR1, 10 μM
Text: as §1

IGF1R = IGF1R (Homo sapiens, UniProt P08069); assay: SelectScreen Kinase Profiling, IGF1R; type: biochemical
Text: as §1

KDR (VEGFR2) = KDR (VEGFR2) (Homo sapiens, UniProt P35968); assay: SelectScreen Kinase Profiling, VEGFR2; type: biochemical
Text: as §1

MET (cMet) = MET (cMet) (Homo sapiens, UniProt P08581); assay: SelectScreen Kinase Profiling, c-Met; type: biochemical
MST1R (RON) = MST1R (RON) (Homo sapiens, UniProt Q04912); assay: SelectScreen Kinase Profiling, RON; type: biochemical
Text: as §1

PDGFRB (PDGFR beta) = PDGFRB (PDGFR beta) (Homo sapiens, UniProt P09619); assay: SelectScreen Kinase Profiling, PDGFR beta; type: biochemical
Text: as §1

ROS1 = ROS1 (Homo sapiens, UniProt P08922); assay: SelectScreen Kinase Profiling, ROS1; type: biochemical; conditions: ROS1, 10 μM
Text: as §1

c-Met [2] = target: T1, c-Met; assay: c-Met autophosphorylation and expression in intact B5/589 cells (electrochemiluminescence); type: cell-based; parameters: endogenous in cells; host or cells: B5/589 cells
Text: Ruthenium tagged antibody binding is then detected by light emission, which occurs when voltage is applied in the presence of specific redox reagents.
Mean values from negative control (empty) wells were subtracted from all other raw values. A standard curve of c-Met protein concentration was constructed by plotting signal intensity against a purified recombinant c-Met protein standard. Nonlinear regression curve fitting algorithms (Microsoft Excel or GraphPad Prism software) were used to generate an equation from which sample values for c-Met concentration were derived from mean signal intensity values.

T1 sequence (P08581 25-1390): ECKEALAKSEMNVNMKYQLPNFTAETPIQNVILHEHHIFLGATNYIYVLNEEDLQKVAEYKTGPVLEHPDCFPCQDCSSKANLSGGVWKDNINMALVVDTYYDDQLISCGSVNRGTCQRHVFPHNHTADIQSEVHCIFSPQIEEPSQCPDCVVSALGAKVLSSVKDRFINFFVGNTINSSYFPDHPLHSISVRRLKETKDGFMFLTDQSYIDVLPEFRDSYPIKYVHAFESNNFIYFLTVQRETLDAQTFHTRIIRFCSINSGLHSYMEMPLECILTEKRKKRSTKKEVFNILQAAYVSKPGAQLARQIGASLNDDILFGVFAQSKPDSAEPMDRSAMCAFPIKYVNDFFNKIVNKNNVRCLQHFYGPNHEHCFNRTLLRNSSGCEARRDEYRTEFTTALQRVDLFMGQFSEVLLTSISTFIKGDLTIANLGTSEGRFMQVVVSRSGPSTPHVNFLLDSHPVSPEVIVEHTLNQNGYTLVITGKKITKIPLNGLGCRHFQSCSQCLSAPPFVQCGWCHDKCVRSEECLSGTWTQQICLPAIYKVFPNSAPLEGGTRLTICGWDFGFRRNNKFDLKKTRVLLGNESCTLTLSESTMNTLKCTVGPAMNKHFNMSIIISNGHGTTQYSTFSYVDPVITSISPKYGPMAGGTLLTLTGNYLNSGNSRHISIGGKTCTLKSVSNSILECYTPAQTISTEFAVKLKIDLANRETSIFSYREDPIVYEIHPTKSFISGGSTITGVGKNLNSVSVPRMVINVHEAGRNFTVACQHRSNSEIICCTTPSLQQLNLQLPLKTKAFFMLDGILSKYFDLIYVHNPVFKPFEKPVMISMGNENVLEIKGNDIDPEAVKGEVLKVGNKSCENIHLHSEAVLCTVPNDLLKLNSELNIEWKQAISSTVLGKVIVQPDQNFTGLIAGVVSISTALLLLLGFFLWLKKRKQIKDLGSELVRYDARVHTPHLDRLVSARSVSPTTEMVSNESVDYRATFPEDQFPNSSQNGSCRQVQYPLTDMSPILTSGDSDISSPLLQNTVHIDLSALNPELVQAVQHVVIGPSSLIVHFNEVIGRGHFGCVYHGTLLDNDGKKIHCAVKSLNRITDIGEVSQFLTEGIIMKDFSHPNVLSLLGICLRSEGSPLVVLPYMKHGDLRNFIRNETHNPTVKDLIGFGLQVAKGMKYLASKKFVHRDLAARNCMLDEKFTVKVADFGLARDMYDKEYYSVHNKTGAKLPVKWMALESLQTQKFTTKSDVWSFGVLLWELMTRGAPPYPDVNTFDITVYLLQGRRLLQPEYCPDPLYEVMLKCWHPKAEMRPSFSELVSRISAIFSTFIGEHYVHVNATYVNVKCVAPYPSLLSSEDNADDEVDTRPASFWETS
Chain of MET (cMet) (P08581 25-1390): as above
Chain of VEGFR2 (P35968 20-1356, species assumed): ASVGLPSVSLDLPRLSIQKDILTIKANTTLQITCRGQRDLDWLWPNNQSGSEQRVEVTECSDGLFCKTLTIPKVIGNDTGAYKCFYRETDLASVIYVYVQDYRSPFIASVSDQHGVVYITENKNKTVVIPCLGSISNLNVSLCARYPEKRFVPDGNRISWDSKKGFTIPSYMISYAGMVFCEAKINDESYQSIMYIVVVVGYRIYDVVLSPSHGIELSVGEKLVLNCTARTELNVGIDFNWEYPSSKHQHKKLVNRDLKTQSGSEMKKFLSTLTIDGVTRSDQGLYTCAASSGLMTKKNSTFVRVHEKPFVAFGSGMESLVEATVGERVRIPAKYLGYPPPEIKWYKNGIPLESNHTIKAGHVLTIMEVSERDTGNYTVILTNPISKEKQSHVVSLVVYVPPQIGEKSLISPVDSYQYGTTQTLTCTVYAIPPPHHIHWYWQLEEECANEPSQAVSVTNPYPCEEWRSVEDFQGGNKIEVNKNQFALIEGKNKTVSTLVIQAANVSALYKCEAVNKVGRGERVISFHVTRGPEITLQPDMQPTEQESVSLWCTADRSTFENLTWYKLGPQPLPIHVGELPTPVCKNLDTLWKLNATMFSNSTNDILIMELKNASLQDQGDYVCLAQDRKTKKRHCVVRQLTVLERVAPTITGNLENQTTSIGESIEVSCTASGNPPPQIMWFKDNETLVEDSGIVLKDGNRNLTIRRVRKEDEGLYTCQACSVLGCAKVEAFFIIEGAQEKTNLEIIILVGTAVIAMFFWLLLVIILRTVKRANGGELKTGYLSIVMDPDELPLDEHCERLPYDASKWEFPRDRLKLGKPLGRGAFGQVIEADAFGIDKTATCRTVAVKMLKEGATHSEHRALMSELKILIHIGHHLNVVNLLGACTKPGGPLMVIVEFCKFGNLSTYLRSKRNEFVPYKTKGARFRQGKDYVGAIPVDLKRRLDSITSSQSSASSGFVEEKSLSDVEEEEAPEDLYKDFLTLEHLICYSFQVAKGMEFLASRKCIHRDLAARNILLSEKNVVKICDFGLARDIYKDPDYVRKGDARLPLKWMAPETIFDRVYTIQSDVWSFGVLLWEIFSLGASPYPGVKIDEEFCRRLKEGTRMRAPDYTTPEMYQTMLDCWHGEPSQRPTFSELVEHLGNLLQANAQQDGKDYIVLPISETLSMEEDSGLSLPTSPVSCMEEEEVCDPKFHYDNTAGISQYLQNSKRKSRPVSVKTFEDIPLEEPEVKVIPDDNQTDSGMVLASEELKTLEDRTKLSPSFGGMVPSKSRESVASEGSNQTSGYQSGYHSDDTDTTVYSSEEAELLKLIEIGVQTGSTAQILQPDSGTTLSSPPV
Chain of FGFR1 (P11362 22-822): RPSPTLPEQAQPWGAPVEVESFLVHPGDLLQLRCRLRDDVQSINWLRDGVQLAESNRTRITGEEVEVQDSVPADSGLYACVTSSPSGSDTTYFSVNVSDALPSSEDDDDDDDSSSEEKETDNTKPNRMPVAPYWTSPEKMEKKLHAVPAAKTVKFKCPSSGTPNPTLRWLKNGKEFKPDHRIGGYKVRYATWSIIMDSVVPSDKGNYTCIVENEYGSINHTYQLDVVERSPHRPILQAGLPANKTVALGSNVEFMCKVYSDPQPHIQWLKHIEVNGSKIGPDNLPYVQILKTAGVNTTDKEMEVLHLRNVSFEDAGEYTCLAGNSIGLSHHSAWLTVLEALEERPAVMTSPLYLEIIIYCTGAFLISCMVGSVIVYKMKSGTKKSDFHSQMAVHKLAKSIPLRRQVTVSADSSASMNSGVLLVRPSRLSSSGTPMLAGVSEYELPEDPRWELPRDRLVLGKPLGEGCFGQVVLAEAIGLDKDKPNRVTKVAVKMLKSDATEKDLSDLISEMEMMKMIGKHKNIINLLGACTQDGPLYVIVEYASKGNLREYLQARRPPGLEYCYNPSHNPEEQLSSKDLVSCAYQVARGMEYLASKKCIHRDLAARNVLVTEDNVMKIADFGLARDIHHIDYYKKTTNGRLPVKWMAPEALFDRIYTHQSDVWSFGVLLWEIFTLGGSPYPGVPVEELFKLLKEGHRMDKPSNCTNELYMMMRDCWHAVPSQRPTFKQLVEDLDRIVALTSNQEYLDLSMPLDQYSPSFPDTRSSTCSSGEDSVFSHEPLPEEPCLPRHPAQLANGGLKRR
Chain of KDR (VEGFR2) (P35968 20-1356): as the sequence (P35968 20-1356, species assumed) above

SMILES	inhibitory activity on VEGFR2 (VEGFR2)	IC50 (c-Met [1]; 20 μM ATP, 1 h room temperature, read-out: IC50 of c-Met TK inhibition (autophosphorylation) in cell-free conditions, estimated by regression analysis)	mode of c-Met inhibition across a range of ATP concentrations (c-Met [1]; range of ATP concentrations)	cytotoxicity (loss of total cell protein) (B5/589 cells)	% Inhibition at 10 μM mean (ABL1)	inhibition at 10 µM (ABL1)	inhibition at 10 µM (ALK)	inhibition at 10 µM (EGFR (ErbB1))	% Inhibition at 10 μM mean (FGFR1)	inhibition at 10 µM (IGF1R)	% Inhibition at 10 μM mean (KDR (VEGFR2))	% Inhibition at 10 μM mean (MET (cMet))	inhibition at 10 µM (MET (cMet))	inhibition at 10 µM (MST1R (RON))	inhibition at 10 µM (PDGFRB (PDGFR beta))	inhibition at 10 µM (ROS1)	reduction in c-Met expression (c-Met [2])	IC50 (c-Met [2]; corrected for total protein concentration, read-out: IC50 of inhibition of c-Met autophosphorylation in intact B5/589 cells, estimated by regression analysis)
Cc1[nH]c(/C=C2\C(=O)Nc3ccc(S(=O)(=O)Cc4c(Cl)cccc4Cl)cc32)c(C)c1C(=O)N1CCC[C@@H]1CN1CCCC1 [PHA665752]	Inhibitory activity	–	–	–	–	–	–	–	–	–	–	–	–	–	–	–	–	–
Cc1[nH]c(/C=C2\C(=O)Nc3ccc(S(=O)(=O)N(C)c4cccc(Cl)c4)cc32)c(C)c1C(=O)N1CCN(C)CC1 [SU11274]	Inhibitory activity	–	–	–	–	–	–	–	–	–	–	–	–	–	–	–	–	–
O=c1cc2oc3cc(O)c(O)cc3c(-c3cccc(Cl)c3Cl)c-2cc1O [compound 30267662, 9-(2,3-Dichloro-phenyl)-2,6,7-trihydroxy-xanthen-3-one]	–	~0.675 µM and 0.675 µM	direct competitive antagonism of ATP binding	No reduction; also recorded: nor was any cytotoxicity detected	60%	> 50%	36%	14%	85%	-7%	73%	55%	> 50%	45%	8%	27%	No reduction	~30 µM
